Like-named read-outs stand apart in the source and are kept apart here.
System: adjuvant-induced arthritis
Assay: Established adjuvant-induced arthritis in rats (paw volume, uninjected left hind paw)
Type: in vivo, Male Charles River Lewis rats
Conditions: for ED50: read-out: Adjuvant Arthritis ED50 (effective dose for 50% decrease from control paw volume); for % decrease from control paw volume at indicated daily dose: oral
Excerpt: To detect and compare the antiinflammatory activities of compounds in this series and standard drugs, the adjuvant arthritis test was used. A good correlation exists with results in this assay and human efficacy. (Federation Proceedings, 32, 2, 1973 "Models Used for the Study and Therapy of Rheumatoid Arthritis"--Symposium of the American Society for Pharmacology and Experimental Therapeutics).
ESTABLISHED ADJUVANT-INDUCED ARTHRITIS IN RATS
Male Charles River Lewis rats (130-150 grams) are injected subcutaneously in the plantar area of the right hind paw with 0.1 ml of adjuvant (Difco heat-killed, lyophilized Mycobacterium butyricum suspended in mineral oil 5 mg/ml). 20 Non-arthritic controls are injected with mineral oil. The animals are held for 2 weeks to allow development of arthritis. Paw volumes (uninjected, left hind paw) are measured and the adjuvant injected rats are culled and distributed to treatment groups of 10 of equal disease severity. Non-arthritic controls are distributed to 2 groups of 10. The rats are given oral doses of compound or PVA-Acacia (Polyvinyl Alcohol 1%, Gum acacia, U.S.P. 5%, Methylparaben 0.5%) or 0.25% methocel (10 ml/kg) by gavage on that day and on the 6 following days. One day after the last dose, the paw volumes (uninjected, left hind paw) are measured using a Ugo Basile Volume Differential Meter Model 7101. Inhibiting effects are calculated by the following formula: [formula]
Dose-response regression lines of the percent decrease are plotted on semi-log paper by visual fit and the effective dose for 50% decrease from control paw volume (ED50) is determined by inspection.
Compounds from this series were also compared to indomethacin, phenylbutazone, ibuprofen, and aspirin.

[1] = rat, oral gavage daily, 7 days, paw volume one day after last dose

SMILES	ED50 [1] [mg/kg]	also measured
CS(=O)(=O)c1ccc(-c2[nH]c(Cl)cc2-c2ccc(F)cc2)cc1 [Example 3, 2-Chloro-4-(4-fluorophenyl)-5-(4-methylsulfonylphenyl)-1H-pyrrole]	0.5	
Cn1c(Br)cc(-c2ccc(F)cc2)c1-c1ccc(S(C)(=O)=O)cc1 [Example 5, 1-Methyl-2-bromo-4-(4-fluorophenyl)-5-(4-methylsulfonylphenyl)pyrrole]	1.7	
CS(=O)(=O)c1ccc(-c2[nH]c(I)cc2-c2ccc(F)cc2)cc1 [Example 4, 2-Iodo-4-(4-fluorophenyl)-5-(4-methylsulfonylphenyl)-1H-pyrrole]	22	
CS(=O)(=O)c1ccc(-c2[nH]c(Cl)c(Br)c2-c2ccc(F)cc2)cc1 [Example 8, 2-Chloro-3-bromo-4-(4-fluorophenyl)-5-(4-methylsulfonylphenyl)-1H-pyrrole]		% decrease from control paw volume at indicated daily dose (rat, daily dose 3 (mg/kg)): 45%
CC(=O)Oc1ccccc1C(=O)O [Aspirin, reference compound]		ED50 (Rattus norvegicus, po): 305 mg/kg
CS(=O)(=O)c1ccc(-c2[nH]c(Br)cc2-c2ccc(F)cc2)cc1 [Example 2, 2-Bromo-4-(4-fluorophenyl)-5-(4-methylsulfonylphenyl)-1H-pyrrole]	1.1	
CS(=O)(=O)c1ccc(-c2[nH]c(Br)c(Br)c2-c2ccc(F)cc2)cc1 [Example 6]	0.88	
CC(C)Cc1ccc(C(C)C(=O)O)cc1 (stereo not drawn) [Ibuprofen, reference compound]	100	
CC(C)(C)OC(=O)n1c(Br)cc(-c2ccc(F)cc2)c1-c1ccc(S(C)(=O)=O)cc1 [Example 1, 1-tert-Butyloxycarbonyl-2-bromo-4-(4-fluorophenyl)-5-(4-methylsulfonylphenyl)pyrrole]		% decrease from control paw volume at indicated daily dose (rat, daily dose 9 (mg/kg)): 44%
CS(=O)(=O)c1ccc(-c2[nH]c(Cl)c(Cl)c2-c2ccc(F)cc2)cc1 [Example 9]	1.5	
COc1ccc2c(c1)c(CC(=O)O)c(C)n2C(=O)c1ccc(Cl)cc1 [Indomethacin, reference compound]		ED50 (Rattus norvegicus, po): 0.3 mg/kg
CCCCC1C(=O)N(c2ccccc2)N(c2ccccc2)C1=O [Phenylbutazone, reference compound]	10	

Source: patent publication US4652582A, “Antiinflammatory-2-halo-4,5-diarylpyrroles” (E. I. Du Pont de Nemours and Company, priority 1985, dated 1987)
